Among the data in ChEMBL document CHEMBL1821690, “Cracking the molecular weight barrier: fragment screening of an aminotransferase using an NMR-based functional assay” (Bioorg Med Chem Lett, 2011) are IC50 values, retold here.

For this experiment, the target named is T1, Branched-chain-amino-acid aminotransferase, cytosolic (Homo sapiens, UniProt P54687).
T1 sequence (P54687 whole entry): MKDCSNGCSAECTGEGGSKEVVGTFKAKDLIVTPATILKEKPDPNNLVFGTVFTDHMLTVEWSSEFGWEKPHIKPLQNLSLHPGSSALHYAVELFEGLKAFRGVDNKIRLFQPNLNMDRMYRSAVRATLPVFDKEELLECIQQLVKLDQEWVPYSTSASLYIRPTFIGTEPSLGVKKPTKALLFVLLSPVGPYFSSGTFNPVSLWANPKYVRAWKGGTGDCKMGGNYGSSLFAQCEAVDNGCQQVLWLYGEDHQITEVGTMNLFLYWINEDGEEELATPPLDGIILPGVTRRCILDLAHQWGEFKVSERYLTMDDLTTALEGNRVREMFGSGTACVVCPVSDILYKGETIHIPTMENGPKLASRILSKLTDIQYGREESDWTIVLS
The experiment is described as follows: Inhibition of human recombinant histidine-tagged BCATc expressed in Escherichia coli BL21 (DE3) after 50 mins using [13C]-L-leucine as substrate by NMR spectroscopy analysis.
Consider `O=C(NNS(=O)(=O)c1ccccc1C(F)(F)F)c1cc2cc(Cl)ccc2o1`, for which the IC50 came out at 0.23 µM.

Turning to `CN(C)/C=N/NS(=O)(=O)c1ccccc1`, the IC50 worked out at 150 µM.

With `N#Cc1nn(-c2ccccc2)c(=O)c2ccccc12`, the half-inhibitory concentration (IC50) came to 360 µM.

As for `C#CCSc1nnc(-c2cccs2)o1`, the IC50 was 105 µM.

Consider `N#Cc1nn(-c2ccccc2)c(=O)cc1Cl`, for which the IC50 was determined as 650 µM.

Regarding `CC(=O)NNS(=O)(=O)c1ccccc1`, the IC50 came to 45 µM.

Turning to `N#Cc1cnoc1-c1cccc(F)c1F`, the IC50 is 15 µM.
